Experimental data taken from EP2296651B1, “5-HYDROXYMETHYL-OXAZOLIDIN-2-ONE DERIVATIVES FOR TREATING BACTERIAL INTESTINAL DISEASES” (Actelion Pharmaceuticals Ltd., priority 2008, dated 2009).
In brackets after ≈: the same amount, converted by molar mass. Where two headings read alike, the source gives them in different places.

Legend:
C. difficile ATCC 43596 = test: Broth microdilution MIC, anaerobic; format: cell-based, Clostridium difficile; conditions: Clostridioides difficile, ATCC43596, 48h at 37°C, read-out: MIC regarding C. difficile ATCC 43596
C. perfringens DSM 756 = test: microbe, parasite or virus in culture; format: cell-based; conditions: Clostridium perfringens, DSM756, 48 h, read-out: MIC regarding C. perfringens DSM 756
C. difficile NC 13366 = test: Broth microdilution MIC, anaerobic; format: cell-based, Clostridium difficile; conditions: Clostridioides difficile, NC13366, 48h at 37°C, quinolone-resistant hypervirulent strain, read-out: MIC regarding C. difficile NC 13366
S. aureus A-798 (MRSA) = test: Broth microdilution MIC, aerobic Gram-positive bacteria; conditions: Staphylococcus aureus, 48 h
E. faecium L1 (LZD-R) = test: as above; conditions: Enterococcus faecium, 48 h
E. faecium H 7969 = test: as above; conditions: Enterococcus faecium, H7969, 48 h
[1] = tested on: S. aureus ATCC 43300 (MRSA); test: as above; conditions: Staphylococcus aureus, 48 h
E. faecium H 7965 = test: as above; conditions: Enterococcus faecium, H7965, 48 h
E. faecalis H 6279 = test: as above; conditions: Enterococcus faecalis, H6279, 48 h
E. faecium H 9070 = test: as above; conditions: Enterococcus faecium, H9070, 48 h
[2] = tested on: 209 diverse clinical isolates of C. difficile; test: CLSI agar dilution MIC, clinical isolates; format: cell-based, Clostridium difficile; conditions: Clostridioides difficile, 48 h
E. faecalis H 7094 = test: Broth microdilution MIC, aerobic Gram-positive bacteria; conditions: Enterococcus faecalis, H7094, 48 h
E. faecalis H 7460 = test: as above; conditions: Enterococcus faecalis, H7460, 48 h
E. faecalis ATCC 29212 = test: as above; conditions: Enterococcus faecalis, ATCC29212, 48 h
E. faecium ATCC 19434 = test: as above; conditions: Enterococcus faecium, ATCC19434, 48 h
E. faecium H 7937 = test: as above; conditions: Enterococcus faecium, H7937, 48 h
E. faecium A 962 = test: as above; conditions: Enterococcus faecium, A962, 48 h
S. aureus S1 (LZD-R) = test: as above; conditions: Staphylococcus aureus, 48 h
S. aureus ATCC 29213 = test: as above; conditions: Staphylococcus aureus, ATCC29213, 48 h
C. difficile ATCC 9689 = test: Broth microdilution MIC, anaerobic; format: cell-based, Clostridium difficile; conditions: Clostridioides difficile, ATCC9689, 48h at 37°C, read-out: MIC regarding C. difficile ATCC 9689
E. faecium A 949 = test: Broth microdilution MIC, aerobic Gram-positive bacteria; conditions: Enterococcus faecium, A949, 48 h
E. faecalis H 4060 = test: as above; conditions: Enterococcus faecalis, H4060, 48 h
E. faecium H 7966 = test: as above; conditions: Enterococcus faecium, H7966, 48 h
E. faecalis H 6897 = test: as above; conditions: Enterococcus faecalis, H6897, 48 h
[3] = tested on: C. difficile A-1050 (ATCC 43596); test: Spore formation at sub-MIC concentrations; format: cell-based; conditions: 0.5x the MIC; 4 days anaerobic incubation at 37°C
[4] = tested on: C. difficile strain NC 13366; format: cell-based
[5] = tested on: C. difficile strain NC 13366; test: microbe, parasite or virus in culture; format: cell-based

**Q.** Which results are given for `O=C(O)c1cn(C2CC2)c2nc(N3CCC(O)(COc4ccc(N5C[C@H](CO)OC5=O)cc4F)CC3)c(F)cc2c1=O` [Example 2, 1-cyclopropyl-6-fluoro-7-{4-[2-fluoro-4-((R)-5-hydroxymethyl-2-oxo-oxazolidin-3-yl)phenoxymethyl]-4-hydroxy-piperidin-1-yl}-4-oxo-1,4-dihydro-[1,8]naphthyridine-3-carboxylic acid]?
**A.** MIC (C. difficile ATCC 43596): 0.06 µg/mL (≈ 0.102 µM); MIC (C. perfringens DSM 756): ≤ 0.03 µg/mL; MIC (C. difficile NC 13366): 0.03 µg/mL (≈ 0.0511 µM)

**Q.** With `CC(=O)NC[C@H]1CN(c2ccc(N3CCOCC3)c(F)c2)C(=O)O1` [Linezolid] as the compound, how does the MIC (S. aureus A-798 (MRSA)) read?
**A.** The MIC was 2 µg/mL (≈ 5.93 µM).

**Q.** What about the MIC (E. faecium L1 (LZD-R)) of the same compound?
**A.** The MIC was over 32 µg/mL.

**Q.** What about the MIC (E. faecium H 7969) of the same compound?
**A.** The MIC was 4 µg/mL (≈ 11.9 µM).

**Q.** What about the MIC (C. difficile ATCC 43596) of the same compound?
**A.** Its MIC is 8 µg/mL (≈ 23.7 µM).

**Q.** And the MIC [1]?
**A.** Its MIC is 2 µg/mL (≈ 5.93 µM).

**Q.** And the MIC (E. faecium H 7965)?
**A.** The MIC was 2 µg/mL (≈ 5.93 µM).

**Q.** And the MIC (E. faecalis H 6279)?
**A.** Its MIC is 2 µg/mL (≈ 5.93 µM).

**Q.** What about the MIC (E. faecium H 9070) of the same compound?
**A.** Its MIC is 2 µg/mL (≈ 5.93 µM).

**Q.** What about the MIC90 ([2]; 209 clinical isolates of C. difficile, read-out: MIC90) of the same compound?
**A.** The MIC90 was 8 µg/mL (≈ 23.7 µM).

**Q.** And the MIC (E. faecalis H 7094)?
**A.** Its MIC is 4 µg/mL (≈ 11.9 µM).

**Q.** What about the MIC (E. faecalis H 7460) of the same compound?
**A.** Its MIC is 16 µg/mL (≈ 47.4 µM).

**Q.** What about the MIC (E. faecalis ATCC 29212) of the same compound?
**A.** The MIC was 2 µg/mL (≈ 5.93 µM).

**Q.** And the MIC (E. faecium ATCC 19434)?
**A.** The MIC was 2 µg/mL (≈ 5.93 µM).

**Q.** What about the MIC (E. faecium H 7937) of the same compound?
**A.** The MIC was 1 µg/mL (≈ 2.96 µM).

**Q.** And the MIC (E. faecium A 962)?
**A.** The MIC was 4 µg/mL (≈ 11.9 µM).

**Q.** What about the MIC (S. aureus S1 (LZD-R)) of the same compound?
**A.** The MIC was over 32 µg/mL.

**Q.** And the MIC (C. perfringens DSM 756)?
**A.** Its MIC is 4 µg/mL (≈ 11.9 µM).

**Q.** And the MIC (S. aureus ATCC 29213)?
**A.** Its MIC is 2 µg/mL (≈ 5.93 µM).

**Q.** And the MIC (C. difficile ATCC 9689)?
**A.** Its MIC is 2 µg/mL (≈ 5.93 µM).

**Q.** What about the MIC (E. faecium A 949) of the same compound?
**A.** The MIC was 2 µg/mL (≈ 5.93 µM).

**Q.** What about the MIC (E. faecalis H 4060) of the same compound?
**A.** The MIC was 2 µg/mL (≈ 5.93 µM).

**Q.** And the MIC (E. faecium H 7966)?
**A.** Its MIC is 1 µg/mL (≈ 2.96 µM).

**Q.** What about the MIC (E. faecalis H 6897) of the same compound?
**A.** Its MIC is 4 µg/mL (≈ 11.9 µM).

**Q.** What about the MIC (C. difficile NC 13366) of the same compound?
**A.** The MIC was 1 µg/mL (≈ 2.96 µM).

**Q.** How did the “spores of total cell count” value [3] turn out when `Cc1ncc([N+](=O)[O-])n1CCO` [metronidazole] was run?
**A.** Its value is over 90%.

**Q.** What about the “de novo toxin A production” value ([4]; 1 and 8 µg/ml, supernatants at day 5, high density stationary phase cultures) of the same compound?
**A.** Its value is “did not inhibit toxin A production under these conditions or did so only weakly”.

**Q.** For `CN[C@H](CC(C)C)C(=O)N[C@H]1C(=O)N[C@@H](CC(N)=O)C(=O)N[C@H]2C(=O)N[C@H]3C(=O)N[C@H](C(=O)N[C@H](C(=O)O)c4cc(O)cc(O)c4-c4cc3ccc4O)[C@H](O)c3ccc(c(Cl)c3)Oc3cc2cc(c3O[C@@H]2O[C@H](CO)[C@@H](O)[C@H](O)[C@H]2O[C@H]2C[C@](C)(N)[C@H](O)[C@H](C)O2)Oc2ccc(cc2Cl)[C@H]1O` [vancomycin], which MIC (S. aureus A-798 (MRSA)) is on record?
**A.** The MIC was 1 µg/mL (≈ 0.69 µM).

**Q.** What about the MIC (E. faecium L1 (LZD-R)) of the same compound?
**A.** Its MIC is 0.5 µg/mL (≈ 0.345 µM).

**Q.** And the MIC (E. faecium H 7969)?
**A.** The MIC was over 32 µg/mL.

**Q.** And the MIC [1]?
**A.** The MIC was 1 µg/mL (≈ 0.69 µM).

**Q.** What about the MIC (E. faecium H 7965) of the same compound?
**A.** Its MIC is over 32 µg/mL.

**Q.** And the MIC (E. faecalis H 6279)?
**A.** Its MIC is over 32 µg/mL.

**Q.** And the MIC (E. faecium H 9070)?
**A.** Its MIC is over 32 µg/mL.

**Q.** And the “spores of total cell count” value [3]?
**A.** Its value is over 90%.

**Q.** And the “de novo toxin A production” value [4]?
**A.** Its value is “did not inhibit toxin A production under these conditions or did so only weakly”.

**Q.** And the MIC90 [2]?
**A.** The MIC90 was 2 µg/mL (≈ 1.38 µM).

**Q.** And the MIC (E. faecalis H 7094)?
**A.** Its MIC is over 32 µg/mL.

**Q.** And the MIC (E. faecalis H 7460)?
**A.** The MIC was over 32 µg/mL.

**Q.** What about the MIC (E. faecalis ATCC 29212) of the same compound?
**A.** The MIC was 1 µg/mL (≈ 0.69 µM).

**Q.** And the MIC (E. faecium ATCC 19434)?
**A.** The MIC was 1 µg/mL (≈ 0.69 µM).

**Q.** What about the MIC (E. faecium H 7937) of the same compound?
**A.** The MIC was over 32 µg/mL.

**Q.** And the MIC (E. faecium A 962)?
**A.** Its MIC is over 32 µg/mL.

**Q.** And the MIC (S. aureus S1 (LZD-R))?
**A.** Its MIC is 1 µg/mL (≈ 0.69 µM).

**Q.** And the MIC (S. aureus ATCC 29213)?
**A.** The MIC was 1 µg/mL (≈ 0.69 µM).

**Q.** And the MIC (E. faecium A 949)?
**A.** The MIC was over 32 µg/mL.

**Q.** And the MIC (E. faecalis H 4060)?
**A.** The MIC was over 32 µg/mL.

**Q.** What about the MIC (E. faecium H 7966) of the same compound?
**A.** Its MIC is over 32 µg/mL.

**Q.** And the “toxin B activities of the supernatants, reduction compared to the untreated control” value [5]?
**A.** The value was “not reduced”.

**Q.** And the inhibition at 8 µg/mL ([5]; Clostridioides difficile, NC13366, CHO, 120 h, read-out: toxin B activities of the supernatants, reduction compared to the untreated control)?
**A.** Its inhibition at 8 µg/mL is 30%.

**Q.** And the MIC (E. faecalis H 6897)?
**A.** The MIC was over 32 µg/mL.
